The experiment concerns the target T1, pyIRS/tRNA pair (Methanosarcina mazei, UniProt Q8PWY1).
T1 construct: expressed in transfected cells
In kind it is cell-based. The conditions noted are these: for GFP expression / incorporation in the GFP reporter (in words): GFP assay, HEK293 cells expressing pyIRS/tRNApyl and GFPY40, nnAA at 2 mM; for Positive GFP / Positive GFP Assay: HEK293 cells stably expressing pyIRS (3H7), tRNApyl + GFPY40 reporter, nnAA at 2 mM for 2-3 days; for Positive GFP: visual inspection under the microscope; for Positive GFP Assay: Formula VI analogs. The text has this:
An in vitro cell based assay was developed to assess the compatibility of the pyIRS/tRNA pair and the pyrrolysine analogs of the present invention (nnAAs) by and the efficiency of nnAAs integration into a target protein. For this, HEK293 cells stably expressing pyIRS (3H7) were transiently transfected with plasmids for the expression of tRNApyl and a reporter construct encoding GFPY40 (containing amber codon in place of tyrosine at amino acid residue number 40 (where 1 is the initiator methionine)) using standard transfection protocols. Transfected cells were incubated with nnAAs at 2 mM for 2-3 days GFP production was analyzed qualitatively by visual inspection under the microscope. The GFP fluorescence was quantified by flow cytometry using an Accuri flow cytometer and the geometric mean of the fluorescent cells determined.
This cell based assay was used to determine whether the different nnAAs were suitable substrates for the pyIRS and allowed its translation into a target protein. Cells expressing the PyIRS/tRNApyl pair and containing a vector encoding the GFPY40 reporter gene were incubated in the presence of the nnAAs. nnAAs that are readily utilized by the PyIRS/tRNApyl pair support the translation of the nnAA into the amber site of GFP and allow read-through of the gene producing full length GFP (fluorescent protein). The fluorescence intensity of the cells depends on the efficiency of nnAA incorporation. Thus, nnAAs that are poorly utilized produce weakly fluorescent or non-fluorescing cells. […] Furthermore, the relative expression levels in each sample was compared to those generated by substrates known to be efficiently utilized by pyIRS.

Like-named read-outs stand apart in the source and are kept apart here.

T1 sequence (Q8PWY1 whole entry): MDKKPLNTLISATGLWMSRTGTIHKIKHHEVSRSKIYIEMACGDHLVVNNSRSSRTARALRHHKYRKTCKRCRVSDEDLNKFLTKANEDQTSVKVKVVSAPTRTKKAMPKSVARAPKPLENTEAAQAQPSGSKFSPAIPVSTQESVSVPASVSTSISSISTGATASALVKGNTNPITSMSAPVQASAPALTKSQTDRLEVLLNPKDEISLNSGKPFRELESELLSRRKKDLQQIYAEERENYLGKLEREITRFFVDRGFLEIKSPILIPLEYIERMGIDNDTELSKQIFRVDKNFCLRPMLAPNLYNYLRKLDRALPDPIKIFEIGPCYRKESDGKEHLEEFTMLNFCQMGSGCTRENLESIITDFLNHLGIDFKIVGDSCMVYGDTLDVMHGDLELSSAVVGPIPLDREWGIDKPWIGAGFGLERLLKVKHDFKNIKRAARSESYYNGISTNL

As to `[N-]=[N+]=NCCOC(=O)NCCCC[C@H](N)C(=O)O` [Formula V.1, (2S)-2-amino-6-{[(2-azidoethoxy)carbonyl]amino}hexanoic acid], the “GFP expression / incorporation in the GFP reporter (in words)” value (“GFP expression / incorporation” below) is recorded as “high levels of GFP expression” and the “Positive GFP” value is “Yes”.

As to `C#CCOC(=O)NCCCC[C@H](N)C(=O)O` [Formula V.2, (2S)-2-amino-6-{[(prop-2-yn-1-yloxy)carbonyl]amino}hexanoic acid], the “GFP expression / incorporation” value is “high levels of GFP expression” and the “Positive GFP” value was “Yes”.

Regarding `C=CCOC(=O)NCCCC[C@H](N)C(=O)O` [Formula V.3, (2S)-2-amino-6-{[(prop-2-en-1-yloxy)carbonyl]amino}hexanoic acid], the “GFP expression / incorporation” value is “high levels of GFP expression” and the “Positive GFP” value is “Yes”.

On to `[N-]=[N+]=NCCNC(=O)OCCCC[C@H](N)C(=O)O` [Formula VI.1, (2S)-2-amino-6-{[(2-azidoethyl)carbamoyl]oxy}hexanoic acid], for which the “GFP expression / incorporation” value is given as “high levels of GFP expression” and the “Positive GFP Assay” value is recorded as “Yes”. Also, the “GFP expression / incorporation” value (listed as VI.1) is given as “yield green cells”.

Take `C=CCNC(=O)OCCCC[C@H](N)C(=O)O` [Formula VI.3, (2S)-2-amino-6-{[(prop-2-en-1-yl)carbamoyl]oxy}hexanoic acid]: the “GFP expression / incorporation” value is reported as “yield green cells” and the “Positive GFP Assay” value is “Yes”.

Source of the values: patent US9670521B2, “Amino acid derivatives” (priority 2012, dated 2017).
